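Method: 48-hour compound exposure of cells in 96-well plates, five concentrations, linear interpolation of endpoints. GI50 marks 50% less growth. TGI marks complete inhibition of growth.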
What was measured:
Experiment in all cases: NCI tumour cell line growth inhibition, 48 h
A549 NSCLC = system: A549 NSCLC
HOP-62 NSCLC = system: HOP-62 NSCLC
IGROV1 ovarian = system: IGROV1 ovarian
M14 melanoma = system: M14 melanoma
MDA-MB-435 = system: MDA-MB-435
MDA-N = system: MDA-N
MOLT-4 leukemia = system: MOLT-4 leukemia
RXF 393 renal = system: RXF 393 renal
SF-268 CNS = system: SF-268 CNS
SNB-19 CNS = system: SNB-19 CNS
SW-620 colon = system: SW-620 colon
TK-10 renal = system: TK-10 renal

Compound | TGI (A549 NSCLC) [µM] | TGI (HOP-62 NSCLC) [µM] | TGI (IGROV1 ovarian) [µM] | TGI (M14 melanoma) [µM] | TGI (MDA-MB-435) [µM] | TGI (MDA-N) [µM] | TGI (MOLT-4 leukemia) [µM] | TGI (RXF 393 renal) [µM] | TGI (SF-268 CNS) [µM] | TGI (SNB-19 CNS) [µM] | TGI (SW-620 colon) [µM] | TGI (TK-10 renal) [µM] | GI50 (A549 NSCLC) [µM] | GI50 (HOP-62 NSCLC) [µM] | GI50 (IGROV1 ovarian) [µM] | GI50 (M14 melanoma) [µM] | GI50 (MDA-MB-435) [µM] | GI50 (SF-268 CNS) [µM] | GI50 (TK-10 renal) [µM]
Cc1cc2c(cc1Cl)SC(NNC(=O)c1ccncc1)=NS2(=O)=O | > 10 | > 10 | > 10 | > 10 | > 10 | > 10 | > 10 | > 10 | > 10 | > 10 | > 10 | > 10 |  |  |  |  |  |  | 
Cc1nc2c(n1CCCl)C(=O)c1ccccc1C2=O | > 100 | 62.4 | 41.6 | 17.1 | 28.6 | 32.6 | 78 | 46.2 | > 100 | > 100 | 88.9 | 78.5 |  |  |  |  |  |  | 
CO[C@H]1C[C@@H]2CC[C@@H](C)[C@@](O)(O2)C(=O)C(=O)N2CCCC[C@H]2C(=O)O[C@H]([C@H](C)C[C@@H]2CC[C@@H](OC(=O)C(C)(CO)CO)[C@H](OC)C2)CC(=O)[C@H](C)/C=C(\C)[C@@H](O)[C@@H](OC)C(=O)[C@H](C)C[C@H](C)/C=C/C=C/C=C/1C | > 100 | > 100 | 15.3 | > 100 | > 100 | > 73.4 | > 100 | 21.9 | > 85.7 | > 100 | > 100 |  | 0.95 | < 0.0202 | 0.000946 | 16 | 2.5 | 2.99 | 0.359
COC(=O)C1=C(C(=O)OC)C(C(=O)c2ccccc2)N2N=C(c3ccc(Cl)cc3)C=CC12 (configuration not stated) | > 100 | > 100 |  | > 100 | > 100 | > 100 | > 100 | > 100 | > 100 | > 100 | > 100 | > 100 |  |  |  |  |  |  | 
COC(=O)c1cccc(C)c1C1CN=NC12Cc1c(ccc(C)c1C)C2=O (configuration not stated) | > 100 | > 100 | > 100 | > 100 | > 100 | > 100 | 86.7 | 92.4 | > 100 | > 100 | > 100 | > 100 |  |  |  |  |  |  | 
CC1=CC[C@@]2(C)[C@@H]([C@@H]1C)[C@H]1CC[C@@H]3[C@@]4(C)CC[C@H](O)C(C)(C)[C@@H]4CC[C@@]3(C)[C@]1(C)C[C@@H]2O | > 100 | 38.6 | 42.2 | 32.3 | 70.2 | > 55.4 | > 70.4 | 28.5 | 25.2 | > 66.4 | 98.6 | > 70.7 |  |  |  |  |  |  | 
CC(C)[Si](OCC/C=C/C1CCC(=O)C1C(O)C1CCCCC1)(C(C)C)C(C)C (configuration not stated) | 28.7 | 31.3 | 28.5 | 37.8 | 34.5 | 36.4 | 30 | 26.4 | 24.7 | 32.6 | 31.3 | 32.7 |  |  |  |  |  |  | 
NC(=Nc1ccc(Cl)c(Cl)c1)c1ccccc1N | > 100 | > 100 | 97.9 | 41.4 | 42.2 | 53.4 | 69.3 | 75.9 | > 100 | > 100 | > 100 | > 100 |  |  |  |  |  |  | 
COC(=O)C(Cc1ccccc1)C(=O)NC(CNC(=O)OCc1ccccc1)C(=O)OCc1ccccc1 (configuration not stated) |  | > 100 | > 100 | 30.4 | 50 | 58 | 43.7 | 67.3 | > 100 | > 100 | > 100 | 98 |  |  |  |  |  |  | 
CNC(=O)C(C)NC(=O)C(Cc1ccccc1)NC(=O)OC(C)(C)C (configuration not stated) | > 100 | > 100 | > 100 | > 100 | > 100 | > 100 | > 100 | > 100 | > 100 | > 100 | > 100 | > 100 |  |  |  |  |  |  | 
CCN(CC)CCN1CCN=c2c3cc(OC)ccc3n3cnc4ccc1c2c43 | 2.78 | 3.46 | 2.45 | 2.85 | 1.92 | 1.79 | 0.999 | 1.52 | 2.54 | 3.04 | 1.82 | 4.93 |  |  |  |  |  |  | 
Cn1c(=S)[nH]c2c(Cl)cc(Cl)cc2c1=O | > 100 | > 100 | > 100 | > 100 | > 100 | > 100 | > 100 | > 100 | > 100 | > 100 | > 100 | > 100 |  |  |  |  |  |  | 
OC1OC(c2ccc[nH]2)C(F)(F)C(F)(F)C1(F)F (configuration not stated) | > 100 | > 100 | > 100 | > 100 | > 100 | > 100 | > 100 | > 100 | > 100 | > 100 | > 100 | > 100 |  |  |  |  |  |  | 
CCC/C(Cl)=N\OC(=O)Nc1ccc(Br)cc1 | 45.2 | 42.6 | 32.8 | 25.2 | 28.7 | 27.3 | 6.07 | 31 | 46.2 | > 59.7 | 5.52 | 27.2 |  |  |  |  |  |  | 
O=C(n1[nH]c(=O)n(-c2ccc([N+](=O)[O-])cc2)c1=O)C(Cl)(Cl)Cl | > 75 | > 75 | > 75 | > 75 | > 75 | > 75 | > 75 | > 75 | > 75 | > 75 | > 75 | > 75 |  |  |  |  |  |  | 
CC1=C/C(=N\N(C)C)C(C(O)(C(F)(F)F)C(F)(F)F)C(C)(C)C1 (configuration not stated) | > 100 | > 100 | > 100 | > 100 | > 100 | > 100 | > 100 | > 100 | > 100 | > 100 | > 100 | > 100 |  |  |  |  |  |  | 
C#CCOC(=O)C(N)CS (configuration not stated) | > 100 | > 100 | > 100 | > 100 | > 100 | > 100 | > 100 | > 100 | > 100 |  | > 100 | > 100 |  |  |  |  |  |  | 

Reference: PubChem BioAssay (NCI)
